{"source": "patent US11452781B2", "about": "“Method of preventing and treating type 1 diabetes, allograft rejection and lung fibrosis (by targeting the ATP/P2X7R axis)” (CHILDREN'S MEDICAL CENTER CORPORATION, priority 2013, dated 2022)", "key": {"[1]": {"system": "STAT3", "assay": "STAT3 phosphorylation in CD4+ T cells of cardiac-transplanted mice (Western blot)", "format": "in vivo, mouse", "conditions": "7 days after transplantation", "procedure": "Several key components of T-cell receptor signaling involved in the alloimmune response were examined, and the phosphorylation kinetics following in vitro anti-CD3-Ig/anti-CD28-Ig-mediated CD4+ T-cell activation was evaluated by using the Luminex assay. […] The inventors first confirmed that Colivelin (Col) was able to restore the activation-induced phosphorylation of STAT3 in a dose-dependent manner in oATP-treated CD4+ T cells by Western blotting. […] The effect of oATP and Colivelin on STAT3 phosphorylation and T-cell function was also evaluated following cardiac transplantation."}, "[2]": {"system": "NOD mice", "assay": "Diabetes onset in NOD mice (prevention)", "format": "in vivo, mouse", "procedure": "Untreated NOD mice invariably developed diabetes by 15-20 weeks of age (FIGS. 5A-5E). […] Rapamycin (0.1 mg/kg for 10 days) treatment was again synergistic with oATP treatment, inducing a further delay in the onset of diabetes (FIG. 7) with 70% of mice protected from diabetes at 25 weeks, while rapamycin treatment alone was ineffective in delaying diabetes in NOD mice (FIG. 7). This group of experiments confirmed that the ATP/P2X7R axis is indeed relevant to allo- and autoimmune responses in vivo and that P2X7R targeting can be viewed as a novel strategy to curb both responses.\nConsequently, NOD mice were treated with oATP."}, "[3]": {"system": "C57BL/6 mice transplanted with Bm12 left lung", "assay": "Allogeneic orthotopic left lung transplantation, Bm12 into C57BL/6", "format": "in vivo, mouse", "procedure": "The effect of oATP treatment in a model of allogeneic orthotropic left lung transplantation (Bm12 into C57BL/6) was assessed. Graft rejection and tissue fibrosis occurs early after transplantation and it is complete by day 30. […] CT scan was also performed in untreated or oATP-treated mice. Radiological analysis confirmed the preserved alveolar space and thus the functional integrity of oATP-treated compared to untreated mice (FIG. 8). oATP treatment is a rescue therapy for lung rejection. In a complementary experiment, oATP was tested as a rescue therapy for lung rejection. Bm12 left lung was transplanted into C57BL/6 mice and oATP treatment was started at day 10 after transplantation (when graft infiltration and rejection are evident) and mice follow for 30 days."}, "[4]": {"system": "B6 recipients of BALB/c lung allografts", "assay": "Mouse orthotopic lung transplant, BALB/c donor and C57BL/6 recipient", "format": "in vivo", "method": "Orthotopic left lung transplants were performed as previously described {Bizargity, #22; Iken, #21}. Briefly, donor mice were anesthetized with ketamine and xylazine, intubated with a 22 G Angiocath, and ventilated with isoflurane/oxygen. Lungs were flushed with ice cold phosphate buffered saline, left lung harvested and cuffs placed in the pulmonary artery, pulmonary vein and bronchus. Recipient mice were anesthetized and ventilated with isoflurane/oxygen, and left lung transplants performed via a thoracotomy and implantation of the three-cuffed hilar structures. Transplanted lungs were harvested 15 to 60-70 days following transplantation.\nAllografts were evaluated 15, 30, and 60-70 days after transplant.\nOutcome Measures—In vivo assessment of transplanted lung function was performed by thoracic CT scan imaging and measuring peak airway pressures (PawP) as previously described {Bizargity, #22}. […] Flow cytometry and enzyme-linked immunosorbent spot assay (ELISPOT) for interferon (IFN)-γ and interleukin (IL)-4 were performed as previously described {Vergani, #25; Vergani, #9}."}, "[5]": {"system": "A549 cells co-cultured with PBMCs", "assay": "Cytotoxicity of human PBMC upon IFN-γ stimulated A549 cells, 7 days co-culture", "format": "cell-based", "conditions": "increasing doses of oATP", "procedure": "FIG. 16A depicts a graph of CD8 activation levels. To better assess the response of CD8 T cells, splenocytes isolated from OT1 mice were stimulated with OVA peptide with and without (positive control) oATP (100 μM) and T cell proliferation determined. […] FIG. 16C depicts photomicroscopy images and a graph of cell growth and survival. Freshly isolated human peripheral blood mononuclear cells (PBMCs, 4×10^5/ml) were applied onto pre-seeded A549 cells (at ˜20% confluency). Cells were cultured in RPMI medium supplemented with interferon gamma (IFNγ) with or without oATP for 7 days. Shown are representative images of A549 cells, and A549 cells co-cultured with PBMCs in the presence and absence of 200 μM oATP. Images were taken on day 7 of the co-culture. […]\nOutcome Measures—In vivo assessment of transplanted lung function was performed by thoracic CT scan imaging and measuring peak airway pressures (PawP) as previously described {Bizargity, #22}. ATP levels were measured from transplanted lung bronchoalveolar lavage fluid (BAL) by bioluminescent detection using Enliten ATP assay system (FF2000, Promega Corporation, Madison, Wis.). […] Immunohistochemistry was performed on frozen lung tissue sections utilizing CD4 and CD8 antibodies and isotype controls and assessed based on the average of 10 high power fields/lung allograft. […]"}}, "note": "Entries after “also recorded” stand apart in the source; their conditions may differ."}
{"substance": "periodate-oxidized ATP [oATP]", "values": [{"measurement": "phosphorylated STAT3 in CD4+ T cells", "setting": "[1]", "value": "reduced levels"}, {"measurement": "delay of diabetes onset", "setting": "[2]; 4-week-old NOD mice, daily i.p. for 30 days (early prevention)", "value": "delays diabetes onset"}, {"measurement": "delay of diabetes onset", "setting": "[2]; 10-week-old NOD mice (late prevention)", "value": "delay"}, {"measurement": "mice protected from diabetes at 25 weeks of age", "setting": "[2]; 10-week-old NOD mice, oATP 250 μg i.p. daily 14 days, Rapamycin 0.1 mg/kg 10 days", "value": 50, "unit": "%"}, {"measurement": "lung function (PawP, compliance) after rescue therapy", "setting": "[3]; oATP started at day 10", "value": "Better functional preservation of lung compliance"}, {"measurement": "radiological and histological analysis after rescue therapy", "setting": "[3]; oATP started at day 10, followed for 30 days", "value": "reversal of graft rejection and no signs of fibrosis; also recorded: preservation of alveolar space"}, {"measurement": "graft fibrosis, inflammation and alveolar spaces", "setting": "[3]; treatment from transplantation", "value": "prevents graft fibrosis; also recorded: highly reduced inflammation and preserved alveolar spaces"}, {"measurement": "lung function (PawP)", "setting": "[4]; 15 to ≥60 days", "value": "significantly improved"}, {"measurement": "percentage of Th17 cells", "setting": "[4]; 15 days", "value": "not a significant difference"}, {"measurement": "total number of Th17 cells", "setting": "[4]; 15 days", "value": "reduction; also recorded: fewer"}, {"measurement": "total number of Treg", "setting": "[4]; 15 days", "value": "reduction; also recorded: fewer"}, {"measurement": "BAL ATP levels", "setting": "[4]; 15 days post transplant", "value": "significant reduction"}, {"measurement": "acute rejection, comparison of treatments (FIG. 17)", "setting": "[4]; 30 days, CSA 10 mg/kg/day, CTLA-4Ig 250 μg, oATP 250 μg/day, Rap 0.1 mg/kg/day", "value": "better outcomes than cyclosporine alone; also recorded: more robust as compared to CSA"}, {"measurement": "thoracic CT imaging of left lung allografts", "setting": "[4]; all three time points", "value": "little infiltrate"}, {"measurement": "number of leucocytes and lymphocytes isolated from lung allografts", "setting": "[4]; day 15, flow cytometry, vs untreated", "value": "nearly half; also recorded: significantly fewer"}, {"measurement": "effector memory T cells (CD44highCD62Llow)", "setting": "[4]; lung allograft T cells", "value": "inhibitory effect; also recorded: significant reduction"}, {"measurement": "IFN-γ and IL-4 response of isolated T cells (ELISPOT)", "setting": "[4]; most pronounced after 15 days", "value": "impaired"}, {"measurement": "CD4 and CD8 T cells within lung allografts", "setting": "[4]; mouse, in vivo", "value": "decrease"}, {"measurement": "amount of inflammation (score 0-4) / histology", "setting": "[4]; mouse, in vivo", "value": "remarkable reduction; also recorded: limited disease"}, {"measurement": "percentage of CD8 Tcm (CD8+CD44+CD62L+CCR7+)", "setting": "[4]; mouse, in vivo", "value": "increased"}, {"measurement": "percentage of Treg", "setting": "[4]; mouse, in vivo", "value": "not a remarkable difference"}, {"measurement": "lung allograft survival / function", "setting": "[4]; oATP daily IP", "value": "> 60", "unit": "days"}, {"measurement": "lung function (PawP) after rescue dosing", "setting": "[4]; oATP days 15-30", "value": "improved; also recorded: significant improvement"}, {"measurement": "cytolytic activity of PBMC on A549 cells", "setting": "[5]", "value": "remarkable reduction"}]}
